Key:
[1] = Blood (R)-3-hydroxybutyrate level after oral administration; type: in vivo; details: for circulating levels of (R)-3-hydroxybutyrate in the blood: general statement; for uptake in the gut: upon consumption of a drink
Experimental: At a dose of 1 g/kg of body weight of the subject, the blood (R)-3-hydroxybutyrate concentration is suitably at least 4 mM, preferably 5 mM. Upon oral administration of monoester of 1.5 g/kg of body weight of the subject, the blood (R)-3-hydroxybutyrate concentration is suitably at least 7 mM, preferably at least 8 mM, especially at least 9 mM. A dosing regime comprises multiple drinks consumed separately.
Blood levels of (R)-3-hydroxybutyrate may be determined by commercially available testing kits, for example, (R)-3-hydroxybutyrate can be measured on whole blood using a handheld monitor and reagent strips (Precision Xtra, Abbott Diabetes Care, UK).

liver fat [2] = assay: 1H Magnetic Resonance Spectroscopy (MRS) of liver, quantification of liver fat; type: in vivo, human; details: for liver fat (hepatic triglyceride relative to water): lean subjects; for liver triglyceride level: obese subjects
Experimental: Three obese subjects (BMI 33±3 kg/m^2) and seven lean subjects (BMI 23±2 kg/m^2), matched for age, gender, diabetes duration, treatment and HBA1c, underwent a ^1H-MRS scan for quantification of liver steatosis. All subjects were weighed and underwent a treatment regime for five days in which each subject consumed three drinks per day containing 0.393 g/kg body weight of (R)-3-hydroxybutyrate-R-1,3-butanediol monoester, made up to a final volume of 3.3 ml/kg body weight. […] Liver ^1H-MRS was performed on each of the subjects at the beginning and end of the 5 days to determine the change in liver fat. The ^1H-MRS measurements were carried out on a 3 T Siemens Tim Trio using a whole-body coil and 6-channel anterior plus 24-channel posterior phased-array coils for signal receiving. To obtain hepatic ^1H-MRS, an 8-ml voxel (2×2×2) was positioned in the liver, avoiding gross vascular, biliary structures and adipose tissue depots. Spectra, with and without water suppression, were obtained to calculate hepatic triglyceride content as a percentage relative to water (triglyceride/water×100). A calibration pulse sequence was implemented to evaluate the optimal water suppression pulse scaling factor. Individual coil signals were combined within Matlab using specifically written modules. The water-suppressed scans were constructively averaged, including frequency correction. Spectra were quantified using the Advanced Method of Accurate, Robust and Efficient Spectroscopic ([…]) fitting algorithm. Metabolite peaks (including lipid/triglycerides) were analyzed and prior knowledge was used for all peak locations by using soft constraints. All peaks were fitted using Lorentzian lineshapes.

liver fat [3] = assay: Reduction of liver fat, general statement; type: in vivo
[4] = Body weight change after five-day ketone ester drink regime; type: in vivo, human; details: 393 mg/kg body weight 3 times per day for 5 days
Experimental: Three obese subjects (BMI 33±3 kg/m^2) and seven lean subjects (BMI 23±2 kg/m^2), matched for age, gender, diabetes duration, treatment and HBA1c, underwent a ^1H-MRS scan for quantification of liver steatosis. All subjects were weighed and underwent a treatment regime for five days in which each subject consumed three drinks per day containing 0.393 g/kg body weight of (R)-3-hydroxybutyrate-R-1,3-butanediol monoester, made up to a final volume of 3.3 ml/kg body weight. […] The subjects were not asked to change their normal diet, but did keep diet diaries. Subjects lost 1.3 kg over the five-day period, irrespective of their starting body weight. The weight loss in 7 lean subjects (FIG. 1a) and 3 obese subjects (FIG. 1b) was the same, 1.3 kg, after drinking 393 mg/kg body weight (R)-3-hydroxybutyrate-(R)-1,3 butanediol monoester (ΔG®) 3 times per day for 5 days.

[5] = end of the 5 days, 393 mg/kg 3 times per day

period of raised (R)-3-hydroxybutyrate concentrations ([1]; compared with ketone salts)	circulating levels of (R)-3-hydroxybutyrate in the blood [1]	Compound	uptake in the gut [1]	change in liver fat (liver fat [2]; 7 lean subjects, 393 mg/kg 3 times per day for 5 days)	liver fat (hepatic triglyceride relative to water) (liver fat [2]; beginning of the 5 days)	liver fat (hepatic triglyceride relative to water) (liver fat [2]; [5])	liver triglyceride level (liver fat [2]; beginning of the 5 days)	liver triglyceride level (liver fat [2]; [5])	effect on liver fat (liver fat [3])	weight loss ([4]; 3 obese subjects)	weight loss ([4]; 7 lean subjects)
longer period than ketone salts	high circulating levels	C[C@@H](O)CCOC(=O)C[C@@H](C)O [(R)-3-hydroxybutyrate (R)-1,3-butanediol monoester]	surprisingly high level of uptake in the gut	no loss of liver fat	2.3%	2.5%	17.5%	14.1%	reduce liver fat	1.3 kg	1.3 kg
–	high circulating levels	(R)-3-hydroxybutyrate-glycerol partial ester	surprisingly high level of uptake in the gut	–	–	–	–	–	reduce liver fat	–	–

Reference: US12439944B2, “3-hydroxybutyrate compounds for use in reducing liver fat” (TDeltaS Limited, priority 2017, dated 2025)
